Reference: patent US20230112845A1, “COMPOSITIONS OF BERBERINE URSODE[…] METHODS THEREOF FOR TREATING FATTY LIVER DISEASE, DIABETES AND HYPERLIPIDEMIA” (SHENZHEN HIGHTIDE BIOPHARMACEUTICAL LTD., priority 2020, published 2023)

System: patients with presumed NASH and type 2 diabetes
Assay: Phase 2 randomized placebo-controlled trial, 18 weeks: liver fat content (MRI-PDFF), glycemic control, liver enzymes, lipids, body weight, fibrosis markers
Format: in vivo, human
Settings: for Absolute Change in LFC (%), Mean / Relative Change in LFC (%), Mean / Absolute Change in LFC (%), LS Mean / Relative Change in LFC (%), LS Mean: Efficacy Set; for Absolute Change in LFC (%), Mean: placebo −2.0; for Relative Change in LFC (%), Mean: placebo −8.3; for Absolute Change in LFC (%), LS Mean: placebo −1.8; for Relative Change in LFC (%), LS Mean: placebo −8.2; for Mean change in LDL-c (mg/dL), Mean / Mean change in HbA1c (%), Mean / Relative change in GGT (%), Mean / Mean change in TG (mg/dL), Mean / Mean change in GGT (U/L), Mean / Mean change in ALT (U/L), Mean / Relative change in ALT (%), Mean / Mean change in HbA1c (%), LS Mean / Mean change in LDL-c (mg/dL), LS Mean / Mean change in TG (mg/dL), LS Mean / Mean change in GGT (U/L), LS Mean / Mean change in ALT (U/L), LS Mean: Modified Efficacy Set; for Mean change in LDL-c (mg/dL), Mean: placebo 0; for Mean change in HbA1c (%), Mean / Mean change in HbA1c (%), LS Mean: placebo 0.1; for Relative change in GGT (%), Mean: placebo 5; for Mean change in TG (mg/dL), Mean: placebo 18; for Mean change in GGT (U/L), Mean / Mean change in ALT (U/L), LS Mean: placebo −2; for Mean change in ALT (U/L), Mean: placebo −3; for Relative change in ALT (%), Mean: placebo −6; for Mean change in LDL-c (mg/dL), LS Mean: placebo 1; for Mean change in TG (mg/dL), LS Mean: placebo 19; for Mean change in GGT (U/L), LS Mean: placebo −1; for Mean change in Body weight (kg), Mean / Mean change in Body weight (kg), LS Mean: Safety Set, placebo −1.1; for Proportion achieving ≥ 30% relative reduction in LFC (subjects/total): placebo 7/33; for Proportion achieving ≥ 5% Absolute Reduction in LFC (subjects/total): placebo 8/33; for Proportion achieving ≥ 30% relative reduction in LFC (percent): placebo 21%; for Proportion achieving ≥ 5% Absolute Reduction in LFC (percent): placebo 24%; for decrease in mean HbA1c level: placebo increase of 0.1%
Source text: The aim of this study was to determine the effect of two different doses of BUDCA on liver fat content (LFC) in patients with diabetes and presumed NASH when administered for 18 weeks. This phase 2 clinical trial tested the effect of BUDCA in patients with fatty liver disease and diabetes. The group taking the higher dose of this new drug had significant reductions in the amount of fat in their liver as well as improvement in their diabetes.
A prospective, randomized, placebo-controlled trial of two doses of BUDCA administered orally was conducted in a cohort of 100 subjects with fatty liver disease and diabetes. Treatment was for 18 weeks and endpoints measured included reduction in liver fat content measured by […] proton density fat fraction, improvement in glycemic control, changes in liver-associated enzymes, safety and tolerability.
Patients with diabetes and presumed NASH were randomized into one of three treatment groups, as follows: 1) BUDCA 500 mg BID 2) 1,000 mg BID and 3) matching placebo. Presumed NASH was defined based largely on magnetic resonance imaging derived proton density fat fraction (MRI-PDFF) of 10% or more. Additional inclusion criteria further enriched the study population for having NASH by virtue of requiring corrected T1 (cT1) of more than 830 milliseconds and elevated serum aspartate aminotransferase (AST)≥20 units per liter (6). Subjects had to be overweight or obese with body mass index of 25 kg/m^2 or more.
Study subjects underwent an initial screening evaluation, including measurement of LFC by MRI-PDFF. Subjects were excluded if they had known liver disease other than fatty liver disease or a history of excessive alcohol consumption. Although liver biopsies were not done as a part of this study, subjects with clear evidence of cirrhosis were excluded, based upon a platelet count of less than 150,000/mm^3, serum albumin levels less than […] or a current or previous history of clinical hepatic decompensation.
Those who were deemed eligible were then randomized into one of the three treatment groups described above and underwent a further baseline evaluation at the time of randomization and initial dosing. Subjects were permitted to continue their current treatment regimen for diabetes provided they had been on a stable dose regimen for at least 90 days.
LFC was measured at baseline and after 18 weeks of therapy. In addition, changes in liver chemistry tests, measures of glycemic control and serum lipid levels were also assessed during and at the end of treatment.
Descriptive Statistics were used to summarize continuous data, and frequencies and percentages were used to summarize categorical data. The Safety Set consisted of all subjects who received at least one dose of study treatment. The Modified Efficacy Set is a subset of the Safety Set consisting of subjects that had at least one post-dose MRI-PDFF assessment. […] The primary endpoint was an absolute change from Baseline to Week 18 (or ET) in Liver Fat Content. Primary Endpoint summary measures were provided in both the Efficacy and Modified Efficacy sets, with the Efficacy Set prespecified as the primary analysis set. All other endpoints were prespecified to use the Modified Efficacy Set. Comparisons between active treatment groups relative to placebo were tested using Analysis of Covariance (ANCOVA) with treatment group as a fixed effect and baseline value of the parameters of interest as covariates. ANCOVA based LS Means and raw means have been reported. For statistical analysis of laboratory parameters (i.e. P-values), multiple imputation was used to take missing data into account. A two-sided alpha level of 0.05 without adjustment for multiple tests was used to indicate statistical significance. Analyses were performed using SAS System version 9.4.
Effects of treatment with BUDCA on AST to Platelet Ratio Index (APRI) and Fibrosis-4 (FIB-4) were also measured.

## COc1ccc2cc3[n+](cc2c1OC)CCc1cc2c(cc1-3)OCO2.C[C@H](CCC(=O)[O-])[C@H]1CC[C@H]2[C@@H]3[C@@H](O)C[C@@H]4C[C@H](O)CC[C@]4(C)[C@H]3CC[C@]12C [BUDCA, berberine ursodeoxycholate]
500 mg BID, 18 weeks, N 30
  Absolute Change in LFC (%), Mean: −2.9%
  Relative Change in LFC (%), Mean: −15.1%
500 mg BID, 18 weeks, P 0.199
  Absolute Change in LFC (%), LS Mean: −3.2%
500 mg BID, 18 weeks, P 0.196
  Relative Change in LFC (%), LS Mean: −15.9%
500 mg BID, 18 weeks, N 27
  Mean change in LDL-c (mg/dL), Mean: 5 mg/dL
500 mg BID, 18 weeks, N 29
  Mean change in HbA1c (%), Mean: −0.3%
  Relative change in GGT (%), Mean: −23%
  Mean change in TG (mg/dL), Mean: -41 mg/dL
  Mean change in GGT (U/L), Mean: −19 U/L
  Mean change in ALT (U/L), Mean: −4 U/L
  Relative change in ALT (%), Mean: −6%
  Mean change in Body weight (kg), Mean: -1.6 kg
500 mg BID, 18 weeks, P 0.029
  Mean change in HbA1c (%), LS Mean: −0.4%
500 mg BID, 18 weeks, P 0.955
  Mean change in LDL-c (mg/dL), LS Mean: 1 mg/dL
500 mg BID, 18 weeks, P 0.041
  Mean change in TG (mg/dL), LS Mean: -36 mg/dL
500 mg BID, 18 weeks, P 0.005
  Mean change in GGT (U/L), LS Mean: −20 U/L
500 mg BID, 18 weeks, P 0.674
  Mean change in ALT (U/L), LS Mean: −5 U/L
500 mg BID, 18 weeks, P 0.554
  Mean change in Body weight (kg), LS Mean: -1.6 kg
500 mg BID, 18 weeks, P=0.04
  decrease in triglyceride level: 41 mg/dL
500 mg BID, 18 weeks
  Proportion achieving ≥ 30% relative reduction in LFC (subjects/total): 6/31
  Proportion achieving ≥ 5% Absolute Reduction in LFC (subjects/total): 10/31
  Proportion achieving ≥ 30% relative reduction in LFC (percent): (19%)
  Proportion achieving ≥ 5% Absolute Reduction in LFC (percent): (32%)
  decrease in mean HbA1c level: 0.3%
1,000 mg BID, 18 weeks, N 27
  Absolute Change in LFC (%), Mean: −4.8%
  Relative Change in LFC (%), Mean: −24.1%
  Mean change in Body weight (kg), Mean: -3.5 kg
1,000 mg BID, 18 weeks, P 0.011
  Absolute Change in LFC (%), LS Mean: −4.7%
1,000 mg BID, 18 weeks, P 0.016
  Relative Change in LFC (%), LS Mean: −23.3%
1,000 mg BID, 18 weeks, N 25
  Mean change in LDL-c (mg/dL), Mean: -16 mg/dL
1,000 mg BID, 18 weeks, N 26
  Mean change in HbA1c (%), Mean: −0.6%
  Relative change in GGT (%), Mean: −29%
  Mean change in TG (mg/dL), Mean: -24 mg/dL
  Mean change in GGT (U/L), Mean: −30 U/L
  Mean change in ALT (U/L), Mean: −19 U/L
  Relative change in ALT (%), Mean: −21%
1,000 mg BID, 18 weeks, P 0.005
  Mean change in HbA1c (%), LS Mean: −0.5%
1,000 mg BID, 18 weeks, P 0.072
  Mean change in LDL-c (mg/dL), LS Mean: -12 mg/dL
1,000 mg BID, 18 weeks, P 0.120
  Mean change in TG (mg/dL), LS Mean: -24 mg/dL
1,000 mg BID, 18 weeks, P <0.001
  Mean change in GGT (U/L), LS Mean: −25 U/L
1,000 mg BID, 18 weeks, P 0.007
  Mean change in ALT (U/L), LS Mean: −16 U/L
1,000 mg BID, 18 weeks, P 0.012
  Mean change in Body weight (kg), LS Mean: -3.5 kg
1,000 mg BID, 18 weeks, P=0.012
  average body weight loss: 3.5 kg
1,000 mg BID, 18 weeks, placebo 2.0%, p=0.011
  absolute LFC decrease, average: 4.8%
1,000 mg BID, 18 weeks
  Proportion achieving ≥ 30% relative reduction in LFC (subjects/total): 10/30
  Proportion achieving ≥ 5% Absolute Reduction in LFC (subjects/total): 12/30
  Proportion achieving ≥ 30% relative reduction in LFC (percent): (33%)
  Proportion achieving ≥ 5% Absolute Reduction in LFC (percent): (40%)
  decrease in mean HbA1c level: 0.6%
1,000 mg BID, 18 weeks, placebo 8.3%, p=0.016
  relative decrease in LFC: 24.1%
1,000 mg, 18 weeks
  proportion of subjects showing improvements in APRI to thresholds associated with less severe fibrosis, vs placebo: approximately 2 fold
1000 mg, 18 weeks
  proportion of subjects showing improvements in FIB-4 to thresholds associated with less severe fibrosis, vs placebo: approximately 4 fold
1,000 mg, after 18 weeks (FIG. 6)
  reduction in APRI vs placebo: approximately 3 fold
1000 mg, after 18 weeks (FIG. 7)
  reduction in FIB-4 vs placebo: approximately 3 fold
18 weeks (FIG. 8)
  percentage of subjects achieving ALT reductions vs placebo: greater percentage
18 weeks (FIG. 9)
  Pro-C3 vs placebo: No significant differences
  enhanced liver fibrosis (ELF) score vs placebo: No significant differences
BUDCA therapy, 18 weeks
  change in HOMA-IR: No significant changes
  change in level of HDL-c: no significant change
  change in level of blood glucose: No significant changes
  change in level of insulin: No significant changes
High dose group (1,000 mg BID), 18 weeks, P=0.072
  average decrease in level of LDL-c: 16 mg/dL
